Results on three substances are retold here after patent US20040192611A1, “Peptide antioxidants from soy protein” (Kraft Foods Holdings, Inc., priority 2003, published 2004).

The nature of the experiment: Antioxidant activity of soy-derived peptides isolated by HPLC (assay not specified). The note with it: qualitative statement. The source says: In another aspect, the invention is directed to a method of producing a peptide with antioxidant activity. The peptide is made by digesting soy protein isolate (available commercially, e.g., from Protein Technology International, St. Louis, Mo., or using procedures well established in the art) with a protease to produce an aqueous hydrolysate solution. Proteases that may be used for digestion include chymosin, papain, neutrase, promod, and flavozyme and, preferably, either alcalase or corolase. The protease may come from bacterial, plant or fungal sources. The aqueous hydrolysate solution is extracted with an organic solvent, preferably acetone, and the organic phase is selected for further processing. After extraction, solvent may be removed under reduced pressure to concentrate the peptide and the preparation is then fractionated by reverse phase high pressure liquid chromatography (HPLC). Fractions collected during this process may be assayed for antioxidant activity using methods such as those described in the Examples section herein. The identification of fractions containing the peptide may be based upon the presence of antioxidant activity and upon retention time during chromatography. The identity of the peptide within fractions can be confirmed by sequence analysis.
After recovering peptide from the extraction, reverse phase high pressure liquid chromatography may be performed using, for example, a C18 column. […] Fractions collected from the column may be tested for antioxidant activity to identify peaks that are of interest. Finally, specific peptides may be identified by carrying out sequencing experiments.
Fractions with antioxidant activity are collected and subjected to further purification. This is carried out using the mobile phases:
Fractions with antioxidant activity are collected and subject to further purification. In this case, the same mobile phases are used. The flow rate is set at 0.4 ml/min and ultraviolet absorbance is set at 275 nm. The gradient elution program is set as follows: […]

Turning to WWMY (Glycine max), the antioxidant activity result is listed as “found to have antioxidant activity”.

For WTY, the antioxidant activity entry is listed as “found to have antioxidant activity”.

In the case of SWWPF (Glycine max), the antioxidant activity result is listed as “found to have antioxidant activity”.
